pIC50: −log10 of the molar value. Where a name gives a salt, the structure may show the parent alone.
These molecules were tested against T1, TBK1 (Homo sapiens, UniProt Q9UHD2) (assay: TBK1 protein kinase assay ([γ-33P]ATP, P81 filterplates)). Details: 50 μM ATP; read-out: Potency (TBK1 IC50 potency score).
T1 construct: All protein kinases were of human origin and encoded full length proteins, unless indicated otherwise; His6; made in house; host or cells: insect Sf21 cells
T1 sequence (Q9UHD2 1-729): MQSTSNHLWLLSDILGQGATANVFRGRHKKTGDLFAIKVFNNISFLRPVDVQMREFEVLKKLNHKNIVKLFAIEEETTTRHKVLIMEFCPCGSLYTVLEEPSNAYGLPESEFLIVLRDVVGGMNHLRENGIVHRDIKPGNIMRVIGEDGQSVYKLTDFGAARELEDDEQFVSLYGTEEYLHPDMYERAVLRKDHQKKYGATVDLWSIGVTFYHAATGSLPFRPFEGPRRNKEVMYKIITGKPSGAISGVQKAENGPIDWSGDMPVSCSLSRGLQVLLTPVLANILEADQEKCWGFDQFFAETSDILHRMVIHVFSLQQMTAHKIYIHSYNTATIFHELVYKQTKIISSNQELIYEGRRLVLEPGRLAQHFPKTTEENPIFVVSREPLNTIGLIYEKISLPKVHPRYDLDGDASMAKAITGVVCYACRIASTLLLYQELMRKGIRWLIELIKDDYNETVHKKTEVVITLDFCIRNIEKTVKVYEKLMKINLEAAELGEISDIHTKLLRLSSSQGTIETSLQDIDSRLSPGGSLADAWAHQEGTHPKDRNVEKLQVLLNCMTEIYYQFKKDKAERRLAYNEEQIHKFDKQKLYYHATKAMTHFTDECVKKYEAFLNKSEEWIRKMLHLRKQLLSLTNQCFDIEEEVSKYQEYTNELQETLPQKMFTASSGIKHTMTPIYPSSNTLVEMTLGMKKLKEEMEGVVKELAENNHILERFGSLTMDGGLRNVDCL
Format: biochemical
Procedure, shortened: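 Human TBK1 assayed for 30 min with peptide substrate (300 μM), 50 μM [γ-33P]ATP and 10 mM magnesium acetate in 50 mM Tris/HCl pH 7.5, 0.1 mM EGTA, 0.1% 2-mercaptoethanol. Stopped with orthophosphoric acid and counted on P81 filters. IC50 from 10 compound concentrations.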

Compound	pIC50
O=C(NCCCNc1nc(Nc2cccc(OCCN3CCOCC3)c2)ncc1C1CC1)C1CCC1 [Example 143, Cyclobutanecarboxylic acid (3-{5-cyclopropyl-2-[3-(2-morpholin-4-yl-ethoxy)-phenylamino]-pyrimidin-4-ylamino}-propyl)-amide]	> 7.00
CN(C)[C@H]1CCN(Cc2ccc(Nc3ncc(C4CC4)c(NCCCNC(=O)C4CCC4)n3)cn2)C1 [Example 146, Cyclobutanecarboxylic acid (3-{5-cyclopropyl-2-[6-((S)-3-dimethylamino-pyrrolidin-1-ylmethyl)-pyridin-3-ylamino]-pyrimidin-4-ylamino}-propyl)-amide]	> 7.00
CN1CCN(Cc2ccc(Nc3ncc(C4CC4)c(NCCCNC(=O)C4CCC4)n3)cn2)CC1 [Example 147, Cyclobutanecarboxylic acid (3-{5-cyclopropyl-2-[6-(4-methyl-piperazin-1-ylmethyl)-pyridin-3-ylamino]-pyrimidin-4-ylamino}-propyl)-amide]	> 7.00
O=C(NCCCNc1nc(Nc2ccc(CN3CCC(F)(F)CC3)nc2)ncc1C1CC1)C1CCC1 [Example 148, Cyclobutanecarboxylic acid (3-{5-cyclopropyl-2-[6-(4,4-difluoro-piperidin-1-ylmethyl)-pyridin-3-ylamino]-pyrimidin-4-ylamino}-propyl)-amide]	> 7.00
O=C(NCCCNc1nc(Nc2ccc(N3CCCCC3)nc2)ncc1C1CC1)C1CCC1 [Example 150, Cyclobutanecarboxylic acid {3-[5-cyclopropyl-2-(3,4,5,6-tetrahydro-2H-[1,2′]bipyridinyl-5′-ylamino)-pyrimidin-4-ylamino]-propyl}-amide]	> 7.00
O=C(NCCCNc1nc(Nc2ccc(N3CCCC3)nc2)ncc1C1CC1)C1CCC1 [Example 151, Cyclobutanecarboxylic acid {3-[5-cyclopropyl-2-(6-pyrrolidin-1-yl-pyridin-3-ylamino)-pyrimidin-4-ylamino]-propyl}-amide]	> 7.00
O=C(NCCCNc1nc(Nc2cnc(N3CCOCC3)nc2)ncc1C1CC1)C1CCC1 [Example 152, Cyclobutanecarboxylic acid {3-[5-cyclopropyl-2-(2-morpholin-4-yl-pyrimidin-5-ylamino)-pyrimidin-4-ylamino]-propyl}-amide]	> 7.00
O=C(NCCCNc1nc(Nc2ccc(OCCN3CCOCC3)nc2)ncc1C1CC1)C1CCC1 [Example 154, Cyclobutanecarboxylic acid (3-{5-cyclopropyl-2-[6-(2-morpholin-4-yl-ethoxy)-pyridin-3-ylamino]-pyrimidin-4-ylamino}-propyl)-amide]	> 7.00
O=C(NCCCNc1nc(Nc2cnn(CCN3CCOCC3)c2)ncc1C1CC1)C1CCC1 [Example 155, Cyclobutanecarboxylic acid (3-{5-cyclopropyl-2-[1-(2-morpholin-4-yl-ethyl)-1H-pyrazol-4-ylamino]-pyrimidin-4-ylamino}-propyl)-amide]	> 7.00
O=C(NCCCNc1nc(Nc2ccc(CN3CCCCC3)nc2)ncc1C1CC1)C1CCC1 [Example 156, Cyclobutanecarboxylic acid {3-[5-cyclopropyl-2-(6-piperidin-1-ylmethyl-pyridin-3-ylamino)-pyrimidin-4-ylamino]-propyl}-amide]	> 7.00
O=C(NCCCNc1nc(Nc2ccc(CN3CCCC(F)(F)C3)nc2)ncc1C1CC1)C1CCC1 [Example 157, Cyclobutanecarboxylic acid (3-{5-cyclopropyl-2-[6-(3,3-difluoro-piperidin-1-ylmethyl)-pyridin-3-ylamino]-pyrimidin-4-ylamino}-propyl)-amide]	> 7.00
O=C(NCCCNc1nc(Nc2ccc(NCCN3CCOCC3)nc2)ncc1C1CC1)C1CCC1 [Example 158, Cyclobutanecarboxylic acid (3-{5-cyclopropyl-2-[6-(2-morpholin-4-yl-ethylamino)-pyridin-3-ylamino]-pyrimidin-4-ylamino}-propyl)-amide]	> 7.00
CN(C)[C@@H]1CCN(Cc2ccc(Nc3ncc(C4CC4)c(NCCCNC(=O)C4CCC4)n3)cn2)C1 [Example 159, Cyclobutanecarboxylic acid (3-{5-cyclopropyl-2-[6-((R)-3-dimethylamino-pyrrolidin-1-ylmethyl)-pyridin-3-ylamino]-pyrimidin-4-ylamino}-propyl)-amide]	> 7.00
O=C(NCCCNc1nc(Nc2cnn(CCN3CCCCC3)c2)ncc1C1CC1)C1CCC1 [Example 160, Cyclobutanecarboxylic acid (3-{5-cyclopropyl-2-[1-(2-piperidin-1-yl-ethyl)-1H-pyrazol-4-ylamino]-pyrimidin-4-ylamino}-propyl)-amide]	> 7.00

Now from value to molecule:

pIC50	Compound
> 7.00	CC(C)CN(C)Cc1cccc(Nc2ncc(C3CC3)c(NCCCNC(=O)C3CCC3)n2)c1 [Example 133, Cyclobutanecarboxylic acid [3-(5-cyclopropyl-2-{3-[(isobutyl-methyl-amino)-methyl]-phenylamino}-pyrimidin-4-ylamino)-propyl]-amide]
> 7.00	O=C(NCCCNc1nc(Nc2cccc(CN3CCCCC3)c2)ncc1C1CC1)C1CCC1 [Example 134, Cyclobulanecarboxylic acid {3-[5-cyclopropyl-2-(3-piperidin-1-ylmethyl-phenylamino)-pyrimidin-4-ylamino]-propyl}-amide]
> 7.00	O=C(NCCCNc1nc(Nc2cccc(CN3CCC(F)(F)CC3)c2)ncc1C1CC1)C1CCC1 [Example 135, Cyclobutanecarboxylic acid (3-{5-cyclopropyl-2-[3-(4,4-difluoro-piperidin-1-ylmethyl)-phenylamino]-pyrimidin-4-ylamino}-propyl)-amide]
> 7.00	N#CCc1cccc(Nc2ncc(C3CC3)c(NCCCNC(=O)C3CCC3)n2)c1 [Example 136, Cyclobutanecarboxylic acid {3-[2-(3-cyanomethyl-phenylamino)-5-cyclopropyl-pyrimidin-4-ylamino]-propyl}-amide]
> 7.00	Cn1ncc2cc(Nc3ncc(C4CC4)c(NCCCNC(=O)C4CCC4)n3)ccc21 [Example 137, Cyclobutanecarboxylic acid {3-[5-cyclopropyl-2-(1-methyl-1H-indazol-5-ylamino)-pyrimidin-4-ylamino]-propyl}-amide]
> 7.00	Cn1cc2ccc(Nc3ncc(C4CC4)c(NCCCNC(=O)C4CCC4)n3)cc2n1 [Example 138, Cyclobutanecarboxylic acid {3-[5-cyclopropyl-2-(2-methyl-2H-indazol-6-ylamino)-pyrimidin-4-ylamino]-propyl}-amide]
> 7.00	Cn1ncc2ccc(Nc3ncc(C4CC4)c(NCCCNC(=O)C4CCC4)n3)cc21 [Example 139, Cyclobutanecarboxylic acid {3-[5-cyclopropyl-2-(1-methyl-1H-indazol-6-ylamino)-pyrimidin-4-ylamino]-propyl}-amide]
> 7.00	O=C(NCCCNc1nc(Nc2cccc(N3CCNC3=O)c2)ncc1C1CC1)C1CCC1 [Example 140, Cyclobutanecarboxylic acid (3-{5-cyclopropyl-2-[3-(2-oxo-imidazolidin-1-yl)-phenylamino]-pyrimidin-4-ylamino}-propyl)-amide]
> 7.00	O=C(NCCCNc1nc(Nc2cccc(Br)c2)ncc1C1CC1)C1CCC1 [Example 141, Cyclobutanecarboxylic acid {3-[2-(3-bromo-phenylamino)-5-cyclopropyl-pyrimidin-4-ylamino]-propyl}-amide]
> 7.00	O=C(NCCCNc1nc(Nc2cccc(C(=O)N3CCNCC3)c2)ncc1C1CC1)C1CCC1 [Example 142, Cyclobutanecarboxylic acid (3-{5-cyclopropyl-2-[3-(piperazine-1-carbonyl)-phenylamino]-pyrimidin-4-ylamino}-propyl)-amide. Hydrochloride]
> 7.00	O=C(NCCCNc1nc(Nc2cccc(NC(=O)N3CCCC3)c2)ncc1C1CC1)C1CCC1 [Example 144, Pyrrolidine-1-carboxylic acid (3-{4-[3-(cyclobutanecarbonyl-amino)-propylamino]-5-cyclopropyl-pyrimidin-2-ylamino}-phenyl)-amide]
> 7.00	CC(C)(c1cccc(Nc2ncc(C3CC3)c(NCCCNC(=O)C3CCC3)n2)c1)N1CCOCC1 [Example 145, Cyclobutanecarboxylic acid (3-{5-cyclopropyl-2-[3-(1-methyl-1-morpholin-4-yl-ethyl)-phenylamino]-pyrimidin-4-ylamino}-propyl)-amide]
5.00 to 6.00	O=C(NCCCNc1nc(Nc2cncnc2)ncc1C1CC1)C1CCC1 [Example 149, Cyclobutanecarboxylic acid {3-[5-cyclopropyl-2-(pyrimidin-5-ylamino)-pyrimidin-4-ylamino]-propyl}-amide]
> 7.00	Cn1cc(Nc2ncc(C3CC3)c(NCCCNC(=O)C3CCC3)n2)cn1 [Example 153, Cyclobutanecarboxylic acid {3-[5-cyclopropyl-2-(1-methyl-1H-pyrazol-4-ylamino)-pyrimidin-4-ylamino]-propyl}-amide]
